Laboratory results published in PubChem BioAssay AID1963449 (Molecular Pharmacology Branch, DTP, NCI, 2024).
Values belong to the molecule of their own block, whether it stands above or below them.

System: 596521-263-R-J1-PDC complex spheroid growth
Experiment: Anticancer human tumor 596521-263-R-J1-PDC patient-derived soft tissue sarcoma cell line growth inhibition [Asc]
Details: for IC50: curve of first compound; for viability, T/C: stronger effect = lower value
In short: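 Stromal components (HUVEC and hMSC) are co-assembled with the cancer cells into multicellular spheroids. Drugs are then added singly or paired, at concentrations falling by half-log increments from a clinically achievable maximum, capped at 10 microM without known Cmax.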

[1] = second compound 0.0316 µM, first compound 0.0316 µM
[2] = second compound 0.0316 µM, first compound 0.1 µM
[3] = second compound 0.0316 µM, first compound 0.316 µM
[4] = second compound 0.0316 µM, first compound 1 µM
[5] = second compound 0.0316 µM, first compound 3.16 µM
[6] = second compound 0.0316 µM, first compound 10 µM
[7] = second compound 0.1 µM, first compound 0.0316 µM
[8] = second compound 0.1 µM, first compound 0.1 µM
[9] = second compound 0.1 µM, first compound 0.316 µM
[10] = second compound 0.1 µM, first compound 1 µM
[11] = second compound 0.1 µM, first compound 3.16 µM
[12] = second compound 0.1 µM, first compound 10 µM
[13] = second compound 0.316 µM, first compound 0.0316 µM
[14] = second compound 0.316 µM, first compound 0.1 µM
[15] = second compound 0.316 µM, first compound 0.316 µM
[16] = second compound 0.316 µM, first compound 1 µM
[17] = second compound 0.316 µM, first compound 3.16 µM
[18] = second compound 0.316 µM, first compound 10 µM
[19] = second compound 1 µM, first compound 0.0316 µM
[20] = second compound 1 µM, first compound 0.1 µM
[21] = second compound 1 µM, first compound 0.316 µM
[22] = second compound 1 µM, first compound 1 µM
[23] = second compound 1 µM, first compound 3.16 µM
[24] = second compound 1 µM, first compound 10 µM
[25] = second compound 3.16 µM, first compound 0.0316 µM
[26] = second compound 3.16 µM, first compound 0.1 µM
[27] = second compound 3.16 µM, first compound 0.316 µM
[28] = second compound 3.16 µM, first compound 1 µM
[29] = second compound 3.16 µM, first compound 3.16 µM
[30] = second compound 3.16 µM, first compound 10 µM
[31] = second compound 10 µM, first compound 0.0316 µM
[32] = second compound 10 µM, first compound 0.1 µM
[33] = second compound 10 µM, first compound 0.316 µM
[34] = second compound 10 µM, first compound 1 µM
[35] = second compound 10 µM, first compound 3.16 µM
[36] = second compound 10 µM, first compound 10 µM
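Note: spheroids exposed to compounds for 7 days.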

IC50 (second compound 0.0316 µM): > 10000 nM | IC50 (second compound 0.1 µM): > 10000 nM | IC50 (second compound 0.316 µM): > 10000 nM | IC50 (second compound 1 µM): > 10000 nM | IC50 (second compound 3.16 µM): > 10000 nM | IC50 (second compound 10 µM): 1680 nM
SMILES: C#Cc1c(F)ccc2cc(O)cc(-c3ncc4c(N5CC6CCC(C5)N6)nc(OCC56CCCN5CC(F)C6)nc4c3F)c12 (stereo unspecified) + Cc1c(S(C)(=O)=O)c(-c2cc(F)cc(N3CCN(c4ccc(NS(=O)(=O)c5ccc(NC(CCN6CCC(C(=O)OCCCP(=O)(O)O)CC6)CSc6ccccc6)c(S(=O)(=O)C(F)(F)F)c5)cc4)CC3)c2)c(-c2ccc(Cl)cc2)n1C(C)C
viability, T/C [1]: 84.7% | viability, T/C [2]: 89.1% | viability, T/C [3]: 91% | viability, T/C [4]: 98.1% | viability, T/C [5]: 111% | viability, T/C [6]: 85.7% | viability, T/C [7]: 85.9% | viability, T/C [8]: 107% | viability, T/C [9]: 107% | viability, T/C [10]: 95.5% | viability, T/C [11]: 95.6% | viability, T/C [12]: 87.8% | viability, T/C [13]: 82.2% | viability, T/C [14]: 81.8% | viability, T/C [15]: 76.9% | viability, T/C [16]: 83.6% | viability, T/C [17]: 100% | viability, T/C [18]: 68.4% | viability, T/C [19]: 83.7% | viability, T/C [20]: 84.2% | viability, T/C [21]: 79.1% | viability, T/C [22]: 83.4% | viability, T/C [23]: 69.3% | viability, T/C [24]: 60.5% | viability, T/C [25]: 59.4% | viability, T/C [26]: 65.3% | viability, T/C [27]: 61% | viability, T/C [28]: 57.1% | viability, T/C [29]: 60.4% | viability, T/C [30]: 42.6% | viability, T/C [31]: 48.1% | viability, T/C [32]: 47.8% | viability, T/C [33]: 55.1% | viability, T/C [34]: 60.7% | viability, T/C [35]: 43.7% | viability, T/C [36]: 37.2%

IC50 (second compound 0.0316 µM): 4960 nM | IC50 (second compound 0.1 µM): 4520 nM | IC50 (second compound 0.316 µM): 4250 nM | IC50 (second compound 1 µM): 2760 nM | IC50 (second compound 3.16 µM): 660 nM | IC50 (second compound 10 µM): 326 nM
SMILES: C=C(F)C(=O)N1CCN(c2nc(OCC3CCCN3C)nc3c2CCN(c2cccc4cccc(Cl)c24)C3)CC1CC#N (stereo unspecified) + Cc1c(S(C)(=O)=O)c(-c2cc(F)cc(N3CCN(c4ccc(NS(=O)(=O)c5ccc(NC(CCN6CCC(C(=O)OCCCP(=O)(O)O)CC6)CSc6ccccc6)c(S(=O)(=O)C(F)(F)F)c5)cc4)CC3)c2)c(-c2ccc(Cl)cc2)n1C(C)C
viability, T/C [1]: 110% | viability, T/C [2]: 98.3% | viability, T/C [3]: 87.6% | viability, T/C [4]: 101% | viability, T/C [5]: 81.9% | viability, T/C [6]: 0.22% | viability, T/C [7]: 98.4% | viability, T/C [8]: 97.9% | viability, T/C [9]: 93.9% | viability, T/C [10]: 91.1% | viability, T/C [11]: 72.8% | viability, T/C [12]: 0.18% | viability, T/C [13]: 104% | viability, T/C [14]: 98% | viability, T/C [15]: 92.4% | viability, T/C [16]: 89.6% | viability, T/C [17]: 68.2% | viability, T/C [18]: 0.17% | viability, T/C [19]: 84.3% | viability, T/C [20]: 87% | viability, T/C [21]: 76.7% | viability, T/C [22]: 80% | viability, T/C [23]: 46% | viability, T/C [24]: 1.18% | viability, T/C [25]: 79.5% | viability, T/C [26]: 67.4% | viability, T/C [27]: 52.4% | viability, T/C [28]: 50.5% | viability, T/C [29]: 26.9% | viability, T/C [30]: 0.2% | viability, T/C [31]: 58.4% | viability, T/C [32]: 50.1% | viability, T/C [33]: 48.3% | viability, T/C [34]: 44.2% | viability, T/C [35]: 22% | viability, T/C [36]: 1.02%

IC50 (second compound 0.0316 µM): > 1000 nM | IC50 (second compound 0.1 µM): > 1000 nM | IC50 (second compound 0.316 µM): > 1000 nM | IC50 (second compound 1 µM): > 1000 nM | IC50 (second compound 3.16 µM): 23.8 nM | IC50 (second compound 10 µM): < 3.16 nM
SMILES: CNC(C)C(=O)NC1CN(S(=O)(=O)c2cccc(S(=O)(=O)N3CCC4CCC(C(=O)NC(c5ccccc5)c5ccccc5)N4C(=O)C(NC(=O)C(C)NC)C3)c2)CCC2CCC(C(=O)NC(c3ccccc3)c3ccccc3)N2C1=O (stereo unspecified) + Cc1c(S(C)(=O)=O)c(-c2cc(F)cc(N3CCN(c4ccc(NS(=O)(=O)c5ccc(NC(CCN6CCC(C(=O)OCCCP(=O)(O)O)CC6)CSc6ccccc6)c(S(=O)(=O)C(F)(F)F)c5)cc4)CC3)c2)c(-c2ccc(Cl)cc2)n1C(C)C
viability, T/C (second compound 0.0316 µM, first compound 0.00316 µM): 84.3% | viability, T/C (second compound 0.0316 µM, first compound 0.01 µM): 97.2% | viability, T/C [1]: 75.4% | viability, T/C [2]: 84.7% | viability, T/C [3]: 89.2% | viability, T/C [4]: 75.2% | viability, T/C (second compound 0.1 µM, first compound 0.00316 µM): 86.1% | viability, T/C (second compound 0.1 µM, first compound 0.01 µM): 82.5% | viability, T/C [7]: 82.1% | viability, T/C [8]: 83% | viability, T/C [9]: 71.9% | viability, T/C [10]: 69.1% | viability, T/C (second compound 0.316 µM, first compound 0.00316 µM): 91.8% | viability, T/C (second compound 0.316 µM, first compound 0.01 µM): 89.7% | viability, T/C [13]: 70.2% | viability, T/C [14]: 70.1% | viability, T/C [15]: 70.9% | viability, T/C [16]: 56.1% | viability, T/C (second compound 1 µM, first compound 0.00316 µM): 74.3% | viability, T/C (second compound 1 µM, first compound 0.01 µM): 63.5% | viability, T/C [19]: 63.9% | viability, T/C [20]: 64.3% | viability, T/C [21]: 59.4% | viability, T/C [22]: 49.5% | viability, T/C (second compound 3.16 µM, first compound 0.00316 µM): 54.1% | viability, T/C (second compound 3.16 µM, first compound 0.01 µM): 54% | viability, T/C [25]: 51.8% | viability, T/C [26]: 42.4% | viability, T/C [27]: 35.6% | viability, T/C [28]: 32.3% | viability, T/C (second compound 10 µM, first compound 0.00316 µM): 44.1% | viability, T/C (second compound 10 µM, first compound 0.01 µM): 38.6% | viability, T/C [31]: 37.1% | viability, T/C [32]: 34.2% | viability, T/C [33]: 27% | viability, T/C [34]: 20.8%
